Source: PMC3756936 (Journal of medicinal chemistry, 2013)
Like-named read-outs stand apart in the source and are kept apart here.

What was measured:
COS = conditions: African green monkey
HEK293 cells = conditions: human
CHO = conditions: Chinese hamster
[1] = Mouse liver microsomal stability; format: in vitro ADME; conditions: liver microsomes, 37 °C
CpIMPDH = molecular target: T1, CpIMPDH (Cryptosporidium parvum, UniProt Q8T6T2); test: biochemical; format: biochemical; conditions: for inhibition mechanism with respect to NAD+: best fit; for inhibition mechanism with respect to NAD+ / inhibition mechanism with respect to IMP: in words
T1 sequence (Q8T6T2 1-400): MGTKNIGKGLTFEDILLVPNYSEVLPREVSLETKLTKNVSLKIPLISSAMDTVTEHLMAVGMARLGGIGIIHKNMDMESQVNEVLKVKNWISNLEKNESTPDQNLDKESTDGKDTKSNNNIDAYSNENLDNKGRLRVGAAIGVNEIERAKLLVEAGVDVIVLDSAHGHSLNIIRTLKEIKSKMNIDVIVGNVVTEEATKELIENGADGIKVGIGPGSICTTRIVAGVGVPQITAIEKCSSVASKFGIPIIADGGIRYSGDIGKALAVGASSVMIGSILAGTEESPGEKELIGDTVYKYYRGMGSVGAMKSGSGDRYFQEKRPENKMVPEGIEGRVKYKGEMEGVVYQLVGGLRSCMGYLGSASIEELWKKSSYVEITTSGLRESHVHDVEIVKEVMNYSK

HeLa = conditions: human
[2] = test system: Toxo/CpIMPDH (T. gondii strain that relies on CpIMPDH); test: microbe, parasite or virus in culture; format: cell-based, Toxoplasma gondii; conditions: for EC50: Toxoplasma gondii, read-out: EC50 Toxo/CpIMPDH

## C[C@H](Nc1cccc(Cl)c1Cl)C(=O)Nc1ccc2oc(-c3ccncc3)nc2c1 [15a, (S)-2-(2,3-dichlorophenylamino)-N-(2-(pyridine-4-yl)benzo[d]oxazol-5-yl) propionamide]
COS
  LD50: > 50 µM
HEK293 cells
  LD50: > 50 µM
CHO
  LD50: > 50 µM

## C[C@H](Oc1cccc(Cl)c1Cl)C(=O)Nc1ccc2nc(-c3ccncc3)oc2c1 [40a, (S)-2-(2,3-dichlorophenoxy)-N-(2-(pyridin-4-yl)benzo[d]oxazol-6-yl)propionamide]
COS
  LD50: > 50 µM
HEK293 cells
  LD50: > 50 µM
CHO
  LD50: > 50 µM
[1]; t1/2 (min) + NADPH, + NADPH
  half-life: ≤ 12 min
[1]; t1/2 (min) − NADPH, − NADPH
  half-life: ≤ 12 min

## CC(Oc1ccc(Cl)cc1Cl)C(=O)Nc1ccc2oc(-c3ccncc3)nc2c1 (stereo not drawn) [compound 1]
CpIMPDH; Kis (nM), Substrate IMP
  Ki: 58 ± 5 nM
CpIMPDH; Kis (nM), Substrate NAD
  Ki: 33 ± 8 nM
CpIMPDH
  inhibition mechanism with respect to NAD+: competitive
  inhibition mechanism with respect to IMP: noncompetitive

## CC(Oc1ccccc1Cl)C(=O)Nc1ccc2oc(-c3ccncc3)nc2c1 (stereo not drawn) [compound 41, 2-(2-chlorophenoxy)-N-(2-(pyridine-4-yl)benzo[d]oxazol-5-yl)propionamide]
COS
  LD50: > 50 µM
HEK293 cells
  LD50: ~ 12.5 μM
CHO
  LD50: > 50 µM
HeLa
  LD50: > 50 µM

## COc1ccc(OC(C)C(=O)Nc2ccc3oc(-c4ccncc4)nc3c2)cc1 (stereo not drawn) [compound 44, 2-(4-methoxyphenoxy)-N-(2-(pyridine-4-yl)benzo[d]oxazol-5-yl)propionamide]
COS
  LD50: > 50 µM
HEK293 cells
  LD50: > 50 µM
CHO
  LD50: > 50 µM

## CC(Oc1cccc(Cl)c1Cl)C(=O)Nc1ccc2oc(-c3ccncc3)nc2c1 (stereo not drawn) [compound 46, 2-(2,3-dichlorophenoxy)-N-(2-(pyridine-4-yl)benzo[d]oxazol-5-yl)propionamide]
COS
  LD50: > 50 µM
HEK293 cells
  LD50: > 50 µM
CHO
  LD50: > 50 µM
[2]
  selectivity versus Toxo/WT: > 30 fold
  EC50: ≤ 250 nM

## CC(Oc1cccc2ccccc12)C(=O)Nc1ccc2oc(-c3ccncc3)nc2c1 (stereo not drawn) [compound 48, 2-(naphthalene-1-yloxy)-N-(2-(pyridine-4-yl)benzo[d]oxazol-5-yl)propionamide]
[2]
  selectivity versus Toxo/WT: > 30 fold
  EC50: ≤ 250 nM

## C[C@H](Oc1cccc(Cl)c1Cl)C(=O)Nc1ccc2oc(-c3ccncc3)nc2c1 [compound 55, (S)-2-(2,3-dichlorophenoxy)-N-(2-(pyridin-4-yl)benzo[d]oxazol-5-yl)propionamide]
[1]; t1/2 (min) + NADPH, + NADPH
  half-life: ≤ 12 min
[1]; t1/2 (min) − NADPH, − NADPH
  half-life: ≤ 12 min

## C[C@H](Oc1cccc([N+](=O)[O-])c1Cl)C(=O)Nc1ccc2oc(-c3ccncc3)nc2c1 [compound 57, (S)-2-(2-chloro-3-nitrophenoxy)-N-(2-(pyridine-4-yl)benzo[d]oxazol-5-yl)propionamide]
COS
  LD50: > 50 µM
HEK293 cells
  LD50: > 50 µM
CHO
  LD50: > 50 µM

## C[C@H](Oc1cccc(Cl)c1Cl)C(=O)Nc1ccc2oc(-c3cncs3)nc2c1 [compound 62, (S)-2-(2,3-dichlorophenoxy)-N-(2-(thiazol-5-yl)benzo[d]oxazol-5-yl)propionamide]
[1]; t1/2 (min) + NADPH, + NADPH
  half-life: ≤ 12 min
[1]; t1/2 (min) − NADPH, − NADPH
  half-life: ≤ 12 min

## C[C@H](Oc1cccc2ccccc12)C(=O)Nc1ccc2oc(-c3cncs3)nc2c1 [compound 63, (S)-2-(naphthalene-1-yloxy)-N-(2-(thiazol-5-yl)benzo[d]oxazol-5-yl)propionamide]
CpIMPDH; Kis (nM), Substrate IMP
  Ki: 1.6 ± 0.7 nM
CpIMPDH; Kis (nM), Substrate NAD
  Ki: 0.9 ± 0.3 nM
CpIMPDH
  inhibition mechanism with respect to NAD+: competitive
  inhibition mechanism with respect to IMP: noncompetitive

## C[C@H](Oc1cccc(Cl)c1Cl)C(=O)Nc1cc(Cl)c2oc(-c3ccncc3)nc2c1 [compound 68, (S)-N-(7-chloro-2-(pyridin-4-yl)benzo[d]oxazol-5-yl)-2-(2,3-dichlorophenoxy)propionamide]
CpIMPDH
  Ki: 150 ± 30 nM
  inhibition mechanism with respect to NAD+: competitive
  inhibition mechanism with respect to IMP: noncompetitive
CpIMPDH; Kis (nM), Substrate IMP
  Ki: 210 ± 10 nM

## C[C@@H](C(=O)Nc1ccc2oc(-c3ccncc3)nc2c1)c1ccccc1 [compound 72, (R)-2-phenyl-N-(2-(pyridine-4-yl)benzo[d]oxazol-5-yl)propionamide]
CpIMPDH; Kis (nM), Substrate IMP
  Ki: 100 ± 20 nM
CpIMPDH; Kis (nM), Substrate NAD
  Ki: 40 ± 10 nM
CpIMPDH
  inhibition mechanism with respect to NAD+: competitive
  inhibition mechanism with respect to IMP: noncompetitive
